Source: patent US12685743B2, “Methods and compositions for treating and diagnosing pancreatic cancers” (New York University, priority 2019, dated 2026)

Key:
[1] = system: orthotopic PDA tumors from KPC mice; details: for progression of orthotopic PDA (tumor weight): wild-type mice, oral antifungal vs vehicle, killed three weeks after tumor implantation (FIG. 3B, 7A)
[2] = system: oncogenic progression in KC mice (p48cre;LSL-KrasG12D); assay: KC mouse model of slowly progressive PDA, mycobiome ablation; type: in vivo; details: oral amphotericin B vs vehicle, killed at three months old (FIG. 3A)
Source text: (§1) Littermates were used as controls.

[3] = system: orthotopic tumors from KPC mice; assay: Orthotopic KPC tumors in MBL-null mice; type: in vivo, mouse; details: amphotericin B vs vehicle, three weeks (FIG. 8B)
Source text: as §1

[4] = system: KPC tumor cells; assay: XTT proliferation assay of KPC tumor cells; type: cell-based; details: recombinant mouse C3a 5 nM vs vehicle, serial time points (FIG. 8F)
Source text: as §1

[5] = system: orthotopic tumors from KPC mice; assay: Intratumoral injection of recombinant C3a into orthotopic KPC tumors; type: in vivo, mouse; details: single intratumoral injection 40 μg/kg on day 14, tumors collected day 21 (FIG. 4D)
Source text: as §1

Row | Compound | effect on gemcitabine chemotherapy (tumor weight) ([1]; wild-type mice with orthotopic PDA tumors, amphotericin B combined with gemcitabine, three weeks of treatment (FIG. 3C)) | progression of orthotopic PDA (tumor weight) [1] | oncogenic progression (pancreatic weight, acinar area, ADM/PanIN lesions, fibrosis) [2] | protection against tumor growth in MBL-null mice (tumor weight) [3] | proliferation of KPC cells in vitro [4] | growth of KPC tumors in vivo (change in tumor volume) [5]
1 | C[C@@H]1[C@H](O)[C@@H](C)/C=C/C=C/C=C/C=C/C=C/C=C/C=C/[C@H](O[C@@H]2O[C@H](C)[C@@H](O)[C@H](N)[C@@H]2O)C[C@@H]2O[C@](O)(C[C@@H](O)C[C@@H](O)[C@H](O)CC[C@@H](O)C[C@@H](O)CC(=O)O[C@H]1C)C[C@H](O)[C@H]2C(=O)O [amphotericin B] | potentiated the effect of chemotherapy based on gemcitabine | protective against progression | protected the mice against oncogenic progression | did not provide protection against tumor growth | – | –
2 | OC(Cn1cncn1)(Cn1cncn1)c1ccc(F)cc1F [fluconazole] | – | protective against progression | – | – | – | –
3 | recombinant C3a: recombinant mouse complement fragment C3a (R&D) | – | – | – | – | accelerated the proliferation of KPC cells | accelerated
